Tested on: yeast genes (level of expressed mRNA)
Test: DNA chip analysis of expressed mRNA of yeast genes after 2 h culture with a toxic chemical substance
Format: cell-based, Saccharomyces cerevisiae S288C
Description: Yeast (Saccharomyces cerevtisiae S288C (α SUC2mal mel gap2 CUP1)) were cultured at 25° C. on YPD medium (yeast extract 1%, polypepton 2%, glucose 2%). One of toxic chemical substances was added to the cell at logarithmic growth phase, and the cell was further cultured for two hours. Cell was cultured without any chemical substance in the same condition, and was used as control. Concentrations of the chemical substances were defined to inhibit the growth of the yeast but not lead to death.
After the completion of cultivation, the culture was centrifuged to collect the cells. To the cells, sodium acetate buffer (50 mM sodium acetate, 10 mM EDTA, 1% SDS) was added, and the mixture was shaken at 65° C. for five minutes, followed by returning to room temperature, and obtaining the supernatant, which procedure was repeated two times. To the supernatant, ½ amount of a solution of phenol/chloroform was added, and the mixture was centrifuged to give a supernatant, which was added with an equal amount of chloroform, and the mixture was centrifuged to give a supernatant. To the supernatant, an equal amount of isopropanol containing 0.3 M sodium acetate was added, and the mixture was allowed to stand at room temperature for 30 minutes, after which the mixture was centrifuged to give a sediment of the whole RNAs. Seventy % ethanol was added to the sediment, and the mixture was again centrifuged to give a sediment, which was then dried and dissolved in water. mRNA was isolated from the whole RNAs as followings. In view of the fact that a poly A chain is attached to the 3′ terminus of mRNA, a polynucleotide having a poly T structure which was immobilized on the surface of latex beads was used to trap the mRNA, and then the mRNA was washed and eluted with spine column (Oligotex-dT30<Super>mRNA Purification Kit, Takara). Reverse transcription of the mRNA was conducted with a reverse transcriptase (Super Script II Reverse Transcriptase; catalogue No. 18064-014, GibcoBRL) using fluorescence-labeled nucleotides to give cDNAs that were introduced with Cy3-dUTP or Cy5-dUTP during the reverse transcription.
The labeled cDNAs were dissolved in TE buffer (10 mM Tris-HCl/1 mM EDTA, pH8.0), and the solution was dropped on the DNA chip containing the whole genes of yeast (DNA Chip Research Inc. Japan) so that the cDNAs were hybridized on the DNA chip at 65° C. for over 12 hours. The fluoresces intensity of the DNA chip was read with a scanner, and the ratio relative to the fluorescence intensity resulting from the absence of chemical substance was estimated as the following, which is shown in Tables 1 to 9: [formula]
In the Tables, “Intensity” indicated in the rightmost column is a value of the level of expressed mRNA of each gene in control cells as divided by the average level of the expressions of the whole genes.

C=CC=O [(14), acrolein]
level of expressed mRNA in the presence of chemical substance/in its absence (gene YAL012W): 0.9 | The level of expressed mRNA in the presence of chemical substance/absence: YAL014C (gene YAL014C): 1.8 | The level of expressed mRNA in the presence of chemical substance/absence: YAL017W (gene YAL017W): 1.1 | The level of expressed mRNA in the presence of chemical substance/absence: YAL018C (gene YAL018C): 1.0 | level of expressed mRNA in the presence of chemical substance/in its absence (gene YAL038W): 0.5 | level of expressed mRNA in the presence of chemical substance/in its absence (gene YAL044C): 1.4 | The level of expressed mRNA in the presence of chemical substance/absence: YAL049C (gene YAL049C): 2.0 | level of expressed mRNA in the presence of chemical substance/in its absence (gene YAL054C): 1.3 | The level of expressed mRNA in the presence of chemical substance/absence: YAR047C (gene YAR047C): 1.3 | The level of expressed mRNA in the presence of chemical substance/absence: YAR064W (gene YAR064W): 1.1 | level of expressed mRNA in the presence of chemical substance/in its absence (gene YAR071W): 1.1 | level of expressed mRNA in the presence of chemical substance/in its absence (gene YBL001C): 1.5 | The level of expressed mRNA in the presence of chemical substance/absence: YBL044W (gene YBL044W): 0.9 | The level of expressed mRNA in the presence of chemical substance/absence: YBL100C (gene YBL100C): 0.9 | The level of expressed mRNA in the presence of chemical substance/absence: YBR012C (gene YBR012C): 0.9 | The level of expressed mRNA in the presence of chemical substance/absence: YBR013C (gene YBR013C): 2.5 | level of expressed mRNA in the presence of chemical substance/in its absence (gene YBR014C): 1.2 | level of expressed mRNA in the presence of chemical substance/in its absence (gene YBR023C): 0.8 | level of expressed mRNA in the presence of chemical substance/in its absence (gene YBR029C): 0.9 | level of expressed mRNA in the presence of chemical substance/in its absence (gene YBR035C): 1.3 | level of expressed mRNA in the presence of chemical substance/in its absence (gene YBR050C): 1.3 | The level of expressed mRNA in the presence of chemical substance/absence: YBR051W (gene YBR051W): 1.0 | The level of expressed mRNA in the presence of chemical substance/absence: YBR063C (gene YBR063C): 1.7 | The level of expressed mRNA in the presence of chemical substance/absence: YBR066C (gene YBR066C): 1.1 | level of expressed mRNA in the presence of chemical substance/in its absence (gene YBR068C): 1.8 | level of expressed mRNA in the presence of chemical substance/in its absence (gene YBR111C): 1.6 | The level of expressed mRNA in the presence of chemical substance/absence: YBR124W (gene YBR124W): 1.0 | level of expressed mRNA in the presence of chemical substance/in its absence (gene YBR126C): 0.7 | The level of expressed mRNA in the presence of chemical substance/absence: YBR129C (gene YBR129C): 1.6 | level of expressed mRNA in the presence of chemical substance/in its absence (gene YBR145W): 2.2 | The level of expressed mRNA in the presence of chemical substance/absence: YBR162C (gene YBR162C): 0.5 | level of expressed mRNA in the presence of chemical substance/in its absence (gene YBR183W): 1.3 | level of expressed mRNA in the presence of chemical substance/in its absence (gene YBR222C): 0.5 | The level of expressed mRNA in the presence of chemical substance/absence: YBR255W (gene YBR255W): 1.1 | The level of expressed mRNA in the presence of chemical substance/absence: YBR281C (gene YBR281C): 0.9 | The level of expressed mRNA in the presence of chemical substance/absence: YBR287W (gene YBR287W): 0.8 | level of expressed mRNA in the presence of chemical substance/in its absence (gene YBR299W): 1.4 | level of expressed mRNA in the presence of chemical substance/in its absence (gene YCL009C): 0.7 | The level of expressed mRNA in the presence of chemical substance/absence: YCL044C (gene YCL044C): 1.0 | The level of expressed mRNA in the presence of chemical substance/absence: YCL056C (gene YCL056C): 2.2 | level of expressed mRNA in the presence of chemical substance/in its absence (gene YCL064C): 0.8 | The level of expressed mRNA in the presence of chemical substance/absence: YCR007C (gene YCR007C): 1.7 | level of expressed mRNA in the presence of chemical substance/in its absence (gene YCR037C): 0.8 | level of expressed mRNA in the presence of chemical substance/in its absence (gene YCR048W): 0.9 | level of expressed mRNA in the presence of chemical substance/in its absence (gene YCR098C): 1.1 | level of expressed mRNA in the presence of chemical substance/in its absence (gene YDL022W): 0.8 | The level of expressed mRNA in the presence of chemical substance/absence: YDL046W (gene YDL046W): 1.2 | The level of expressed mRNA in the presence of chemical substance/absence: YDL089W (gene YDL089W): 1.2 | The level of expressed mRNA in the presence of chemical substance/absence: YDL173W (gene YDL173W): 2.1 | The level of expressed mRNA in the presence of chemical substance/absence: YDL193W (gene YDL193W): 1.1 | The level of expressed mRNA in the presence of chemical substance/absence: YDL233W (gene YDL233W): 1.1 | level of expressed mRNA in the presence of chemical substance/in its absence (gene YDR009W): 1.5 | level of expressed mRNA in the presence of chemical substance/in its absence (gene YDR019C): 1.6 | The level of expressed mRNA in the presence of chemical substance/absence: YDR071C (gene YDR071C): 2.0 | The level of expressed mRNA in the presence of chemical substance/absence: YDR078C (gene YDR078C): 1.8 | The level of expressed mRNA in the presence of chemical substance/absence: YDR090C (gene YDR090C): 0.9 | The level of expressed mRNA in the presence of chemical substance/absence: YDR109C (gene YDR109C): 1.0

Source: patent US20050112573A1, “Method of detecting toxic substance” (priority 2001, published 2005)
